Experimental data from US20200348288A1, “A method and a system for analysis of cardiomyocyte function” (IMEC VZW, priority 2017, published 2020).

System: cardiomyocytes
Test: analysis of cardiomyocyte function (microelectrode array recording with simultaneous reflective lensfree imaging) before and after administering of a drug
Type: cell-based
Conditions: after vs before administering of drug, FIG. 5
Source text: During or in-between measurements, a drug may be administered 210 to the cardiomyocytes in order to allow predicting of adverse effects on electrical and/or contractile function of the cardiomyocytes.
After drug treatment, analysis 212 on the cardiomyocytes is again performed. The electrical and/or contractile representations before and after drug treatment may be compared in order to predict adverse effects.
The method further comprises recording 304 electrical signals from the cardiomyocytes. The electrical signals may be acquired by the microelectrode array 112, which may be arranged in contact with the cardiomyocytes on the substrate 110. The electrical signals may further be transferred to readout circuitry 120 recording electrical signals received from the microelectrode array 112.
The method further comprises simultaneously with the recording 304, acquiring 306 a sequence of images. Each image may be acquired by detecting light wavefront information in reflective lensfree imaging and reconstructing the image of the cardiomyocytes based on the detected light wavefront information.
The method further comprises determining 308 an electrical representation relating to an intracellular and/or extracellular action potential, and/or an impedimetric electrical image of a cardiomyocyte based on the recorded electrical signals. […]

Cc1ccc2c(c1)C(=O)C1(O)CCN(c3ccccc3)C1=N2 (centres unmarked) [blebbistatin]
contractile function of the cardiomyocytes (contractile representation): severe adverse effects
electrical function of the cardiomyocytes (electrical representation): not affected
